The CheMixHub viscosity set
Values joined by “and” are separate entries in the source; they are usually repeats but may differ in a detail not shown here. Identical values can stand only once.

Experiment: xn = mol fraction of the nth substance listed

ClC(Cl)Cl + CCCO
viscosity [mPa·s]
Conditions	101 kPa	101.3 kPa
293.15 K, x2 = 0.1045	0.7119	–
293.15 K, x2 = 0.2064	0.7711	–
293.15 K, x2 = 0.3054	0.8524	–
293.15 K, x2 = 0.4027	0.9582	–
293.15 K, x2 = 0.5075	1.105	–
293.15 K, x2 = 0.6005	1.255	–
293.15 K, x2 = 0.7045	1.507	–
293.15 K, x2 = 0.8005	1.746	–
293.15 K, x2 = 0.8967	1.998	–
303 K, x1 = 0.2987	–	1.065
303 K, x1 = 0.4992	–	0.8162
303 K, x1 = 0.699	–	0.6346
303 K, x1 = 0.9085	–	0.5383
303.15 K, x2 = 0.059	0.5225	0.5225
303.15 K, x2 = 0.1045	0.6482	–
303.15 K, x2 = 0.1099	0.5365	0.5365
303.15 K, x2 = 0.1428	0.5488	0.5488
303.15 K, x2 = 0.1958	0.5706	0.5706
303.15 K, x2 = 0.2064	0.6878	–
303.15 K, x2 = 0.2432	0.5949	0.5949
303.15 K, x2 = 0.3054	0.7556	–
303.15 K, x2 = 0.3447	0.6588	0.6588
303.15 K, x2 = 0.4027	0.8383	–
303.15 K, x2 = 0.4974	0.8026	0.8026
303.15 K, x2 = 0.5075	0.9487	–
303.15 K, x2 = 0.6005	1.073	–
303.15 K, x2 = 0.6171	0.9716	0.9716
303.15 K, x2 = 0.7045	1.242	–
303.15 K, x2 = 0.7318	1.185	1.185
303.15 K, x2 = 0.8005	1.408	–
303.15 K, x2 = 0.8606	1.46	1.46
303.15 K, x2 = 0.8967	1.584	–
303.15 K, x2 = 0.9106	1.565	1.565
303.15 K, x2 = 0.9251	1.595	1.595
303.15 K, x2 = 0.9307	1.606	–
303.15 K, x2 = 0.95	1.643	–
311 K, x1 = 0.0987	–	1.283
311 K, x1 = 0.2987	–	0.9064
311 K, x1 = 0.4992	–	0.7227
311 K, x1 = 0.699	–	0.5734
311 K, x1 = 0.9085	–	0.4977
313.15 K, x2 = 0.1045	0.5901	–
313.15 K, x2 = 0.2064	0.6192	–
313.15 K, x2 = 0.3054	0.6675	–
313.15 K, x2 = 0.4027	0.7329	–
313.15 K, x2 = 0.5075	0.8143	–
313.15 K, x2 = 0.6005	0.9163	–
313.15 K, x2 = 0.7045	1.043	–
313.15 K, x2 = 0.8967	1.278	–
319 K, x1 = 0.0987	–	1.08
319 K, x1 = 0.2941	–	0.8178
319 K, x1 = 0.497	–	0.6404
319 K, x1 = 0.699	–	0.5202
319 K, x1 = 0.9085	–	0.4655
323.15 K, x2 = 0.1045	0.4791	–
323.15 K, x2 = 0.2064	0.535	–
323.15 K, x2 = 0.3054	0.5965	–
323.15 K, x2 = 0.4027	0.6495	–
323.15 K, x2 = 0.5075	0.7165	–
323.15 K, x2 = 0.6005	0.7941	–
323.15 K, x2 = 0.7045	0.8805	–
323.15 K, x2 = 0.8005	0.965	–
323.15 K, x2 = 0.8967	1.047	–

CCCCCCCCCCCCCCCC + CCCCCCCCCC
Conditions	viscosity [mPa·s]
298.15 K, 101.33 kPa, x2 = 0.1051	2.749
298.15 K, 101.33 kPa, x2 = 0.2075	2.481
298.15 K, 101.33 kPa, x2 = 0.3045	2.2
298.15 K, 101.33 kPa, x2 = 0.4045	1.976
298.15 K, 101.33 kPa, x2 = 0.5081	1.733
298.15 K, 101.33 kPa, x2 = 0.6095	1.53
298.15 K, 101.33 kPa, x2 = 0.7051	1.336
298.15 K, 101.33 kPa, x2 = 0.8037	1.17
298.15 K, 101.33 kPa, x2 = 0.9041	0.9885
313.15 K, 100 kPa, x2 = 0.35	1.6
313.15 K, 100 kPa, x2 = 0.61	1.18
313.15 K, 100 kPa, x2 = 0.83	0.9

ClC(Cl)Cl + CCO
Conditions	viscosity [mPa·s]
303 K, 101.3 kPa, x1 = 0.1074	0.9539
303 K, 101.3 kPa, x1 = 0.2992	0.8095
303 K, 101.3 kPa, x1 = 0.5029	0.6591
303 K, 101.3 kPa, x1 = 0.6978	0.5679
303 K, 101.3 kPa, x1 = 0.9003	0.5256
303.15 K, 101 kPa, x2 = 0.0811	0.514
303.15 K, 101 kPa, x2 = 0.1571	0.5247
303.15 K, 101 kPa, x2 = 0.2368	0.544
303.15 K, 101 kPa, x2 = 0.3342	0.5774
303.15 K, 101 kPa, x2 = 0.4545	0.6351
303.15 K, 101 kPa, x2 = 0.5514	0.697
303.15 K, 101 kPa, x2 = 0.6372	0.7617
303.15 K, 101 kPa, x2 = 0.7644	0.8683
303.15 K, 101 kPa, x2 = 0.7943	0.8927
303.15 K, 101 kPa, x2 = 0.8607	0.9412
303.15 K, 101 kPa, x2 = 0.9211	0.9752
303.15 K, 101.3 kPa, x2 = 0.186	0.514
303.15 K, 101.3 kPa, x2 = 0.3257	0.5247
303.15 K, 101.3 kPa, x2 = 0.4457	0.544
303.15 K, 101.3 kPa, x2 = 0.5653	0.5774
303.15 K, 101.3 kPa, x2 = 0.6834	0.6351
303.15 K, 101.3 kPa, x2 = 0.761	0.697
303.15 K, 101.3 kPa, x2 = 0.8198	0.7617
303.15 K, 101.3 kPa, x2 = 0.8937	0.8683
303.15 K, 101.3 kPa, x2 = 0.9091	0.8927
303.15 K, 101.3 kPa, x2 = 0.9412	0.9412
303.15 K, 101.3 kPa, x2 = 0.968	0.9752
311 K, 101.3 kPa, x1 = 0.1074	0.8217
311 K, 101.3 kPa, x1 = 0.2992	0.7021
311 K, 101.3 kPa, x1 = 0.5029	0.5849
311 K, 101.3 kPa, x1 = 0.6978	0.5169
311 K, 101.3 kPa, x1 = 0.9003	0.4864
319 K, 101.3 kPa, x1 = 0.1074	0.7107
319 K, 101.3 kPa, x1 = 0.2892	0.6097
319 K, 101.3 kPa, x1 = 0.5029	0.5234
319 K, 101.3 kPa, x1 = 0.6978	0.4922
319 K, 101.3 kPa, x1 = 0.9003	0.4517

CC(C)C(=O)O + [2H]O[2H]
101 kPa, x1 = 0.111
Conditions	viscosity
318.1 K	2.122 mPa·s and 2.132 mPa·s and 2.14 mPa·s
318.11 K	2.112 mPa·s
318.12 K	2.092 mPa·s
318.13 K	2.074 mPa·s
318.14 K	2.06 mPa·s
318.15 K	2.046 mPa·s
318.17 K	2.018 mPa·s
318.19 K	2.011 mPa·s
318.2 K	1.997 mPa·s
318.23 K	1.973 mPa·s
318.26 K	1.956 mPa·s
318.29 K	1.944 mPa·s
318.3 K	1.934 mPa·s
318.36 K	1.912 mPa·s
318.39 K	1.902 mPa·s
318.48 K	1.876 mPa·s
318.56 K	1.857 mPa·s
318.66 K	1.838 mPa·s
318.69 K	1.833 mPa·s
318.98 K	1.788 mPa·s
319.21 K	1.763 mPa·s
319.69 K	1.717 mPa·s
320.21 K	1.677 mPa·s
321.2 K	1.615 mPa·s
322.2 K	1.562 mPa·s

O=C(O)CCl + CC(C)=O
viscosity [mPa·s], 101 kPa
Conditions	x1 = 0.1359	x1 = 0.1855	x1 = 0.2889	x1 = 0.3789	x1 = 0.4791	x1 = 0.6971	x1 = 0.8145
298.15 K	0.4351	0.5339	0.7329	0.9727	1.345	–	–
308.15 K	0.394	0.4777	0.6435	0.8439	1.131	2.166	–
323.15 K	0.3409	0.4134	0.5393	0.6876	0.9042	1.6	2.123

CCCCCCCCCCCCCCCC + CCCCO
101 kPa
Conditions	viscosity [mPa·s]
298.15 K, x2 = 0.3	2.675
323.15 K, x2 = 0.8	1.435

O=CC(Cl)(Cl)Cl + CC(C)=O
viscosity [mPa·s], 101 kPa
Conditions	x1 = 0.0713	x1 = 0.1371	x1 = 0.2697	x1 = 0.3708	x1 = 0.4723	x1 = 0.5664	x1 = 0.6561	x1 = 0.7731	x1 = 0.8964
298.15 K	0.4048	0.4541	0.5494	0.6015	0.6699	0.7342	0.7924	0.8894	0.9679
308.15 K	0.3678	0.4111	–	0.5376	0.5949	0.6484	0.7021	0.7778	0.8506
323.15 K	0.3231	0.3615	0.4176	0.4606	0.5118	0.554	0.6001	0.6568	0.7107

CCCCCCCCCCCCCCCC + CCCO
101 kPa
Conditions	viscosity [mPa·s]
298.15 K, x2 = 0.3	2.665
308.15 K, x2 = 0.8	1.795

O=CC(Cl)(Cl)Cl + CO
313.15 K, 101 kPa
Conditions	viscosity [mPa·s]
x1 = 0.0365	0.5111
x1 = 0.1162	0.9078
x1 = 0.2408	2.096
x1 = 0.3032	2.491
x1 = 0.4207	6.085
x1 = 0.444	6.591
x1 = 0.4731	7.389
x1 = 0.5032	7.028
x1 = 0.5958	3.182
x1 = 0.7159	1.792
x1 = 0.8416	1.198
x1 = 0.9603	0.8738

CC(=O)OCc1ccccc1 + Cc1ccc(C)cc1
viscosity [mPa·s], 101 kPa
Conditions	x1 = 0.0917	x1 = 0.1773	x1 = 0.2764	x1 = 0.3701	x1 = 0.4679	x1 = 0.5689	x1 = 0.6717	x1 = 0.7678	x1 = 0.8698	x1 = 0.9473
303.15 K	0.602	0.645	0.716	0.792	0.891	1.005	1.134	1.267	1.421	1.549
313.15 K	0.537	0.571	0.624	0.681	0.76	0.85	0.937	1.036	1.179	1.273

ClC(Cl)Cl + CC1COC(=O)O1
303.15 K, 101.3 kPa
Conditions	viscosity [mPa·s]
x2 = 0.0961	0.5649
x2 = 0.1929	0.6358
x2 = 0.2906	0.7195
x2 = 0.3894	0.8171
x2 = 0.4887	0.9421
x2 = 0.5894	1.098
x2 = 0.6906	1.287
x2 = 0.7925	1.52
x2 = 0.8962	1.808
